Experimental data taken from patent publication US20190381014A1, “ISOQUINOLINONE COMPOUNDS AND USE THEREOF IN PREPARATION OF ANTIVIRAL DRUGS” (Ginkgo Pharma Co., Ltd., priority 2016, published 2019).
pEC50: −log10 of the molar value.

Assays:
[1] = Rat PK study (single IV and PO dose, plasma LC-MS/MS); assay type: in vivo, S-D rats; conditions: for F / AUC(0-t) / clearance / half-life / Vd / Cmax / Tmax: S-D rats; for F: PO 10 mg/kg vs IV 2 mg/kg; for AUC(0-t) / clearance / half-life / Vd / Cmax / Tmax: Sprague-Dawley (S-D), rat, plasma; for Vd: read-out: Vdss; for PK properties (overall judgement): combining PK data of IV and PO
Protocol: Preparation of intravenous injection formulation: accurately weighing 2-3 mg of a sample, adding appropriate amount of N,N-dimethylacetamide (DMA), vortex oscillating to completely dissolve the solid matter; adding an appropriate volume of 30% Solutol HS-15 aqueous solution, vortex oscillating and then adding saline, so that DMA: 30% Solutol HS-15:saline=20:20:60 (v/v/v), vortex oscillating the liquid to mix the liquid evenly, and filtering to obtain a pharmaceutical preparation of a concentration of 0.4 mg·mL^−1.
Preparation of oral formulation: accurately weighing 10 mg of a sample, adding an appropriate volume of 0.5% CMC-Na aqueous solution, vortex oscillating and ultrasounding to mix the liquid evenly to obtain a pharmaceutical preparation of a concentration of 1 mg·mL^−1.
The formulations were freshly prepared on the day of administration, and samples were reserved and taken for the determination of the actual concentration.
S-D rats of Group A were given a single intravenous injection (IV) of 2 mg·kg^−1, respectively; S-D rats of Group B were given a single gavage administration (PO) of 10 mg·kg^−1, respectively. Approximately 0.15 mL of blood sample will was collected via jugular vein into EDTA-K2 tubes at the designated time points of pre-dose, and 5 min (IV only), 15 min, 30 min, 1 h, 2 h, 4 h, 8 h, 12 h and 24 h post dose. All of the whole blood samples were centrifuged for 10 min (at 5500 rpm) to obtain plasma samples, which were stored at a refrigerator below −30˜−10° C. Concentrations of compounds in the plasma samples were analyzed using a LC-MS/MS method. The pharmacokinetic parameters were calculated using non-compartment model in Pharsight Phoenix 7.0 software. See Tables 2a and 2b for the results.

[2] = system: HBsAg; test: HBsAg inhibition in HepG2.2.15 culture supernatant (ELISA); assay type: cell-based, HBV; conditions: Hepatitis B virus, HepG2.2.15, 192 h, read-out: Activity in HBsAg inhibition, EC50
Protocol: Test method: HepG2.2.15 cell line was seeded into 96-well plates at 1.5×10^4 cells/well. On the following day, the cells were treated with a three-fold serial dilution series of the compounds at eight concentration points, and 2 duplicate wells were determined in parallel. The final DMSO concentration in the culture solution was 0.5%. On the fifth day, the culture solution was replaced with fresh solution containing the compounds. On the eighth day, the culture supernatant was collected and the HBsAg in the culture supernatant was detected by ELISA. The percent inhibition was calculated with respect to the blank control.

| Structure (SMILES) | F [1] [%] | AUC(0-t) ([1]; IV 2 mg/kg) [ng·h/mL] | clearance ([1]; IV 2 mg/kg) [mL/min/kg] | half-life ([1]; IV 2 mg/kg) [h] | Vd ([1]; IV 2 mg/kg) [L/kg] | AUC(0-t) ([1]; PO 10 mg/kg) [ng·h/mL] | Cmax ([1]; PO 10 mg/kg) [ng/mL] | Tmax ([1]; PO 10 mg/kg) [h] | half-life ([1]; PO 10 mg/kg) [h] | pEC50 [2] | PK properties (overall judgement) [1] |
| --- | --- | --- | --- | --- | --- | --- | --- | --- | --- | --- | --- |
| COc1cc2c(cc1C#CC1CC1)C[C@@H](C(C)C)n1cc(C(=O)O)c(=O)cc1-2 [Compound I-11, (S)-9-(cyclopropylethynyl)-6-isopropyl-10-methoxy-2-oxo-6,7-dihydro-2H-pyrido[2,1-α] isoquinoline-3-carboxylic acid] | 11.5 | 946 | 35.9 | 0.58 | 1.37 | 461 | 119 | 1.8 | 3.2 | 8.59 | – |
| COc1cc2c(cc1OCCCC(C)=O)C[C@@H](C(C)C)n1cc(C(=O)O)c(=O)cc1-2 [Compound I-9, (S)-6-isopropyl-10-methoxy-2-oxo-9-((4-oxopentyl)oxy)-6,7-dihydro-2H-pyrido[2,1-α]isoquinoline-3-carboxylic acid] | 4.3 | 504 | 65.9 | 0.29 | 0.942 | 105 | 79.9 | 0.33 | 1.8 | 8.49 | – |
| COCC1(COc2cc3c(cc2OC)-c2cc(=O)c(C(=O)O)cn2[C@H](C(C)C)C3)COC1 [Compound I-7, (S)-6-isopropyl-10-methoxy-9-((3-(methoxymethyl)oxetan-3-yl)methoxy)-2-oxo-6,7-dihydro-2H-pyrido[2,1-α]isoquinoline-3-carboxylic acid] | 8.1 | 1180 | 28.8 | 0.67 | 1.39 | 470 | 103 | 1 | 1.4 | 8.42 | – |
| COc1cc2c(cc1OCC1CC(OC)C1)C[C@@H](C(C)C)n1cc(C(=O)O)c(=O)cc1-2 (stereo partly drawn) [Compound I-8, (S)-6-isopropyl-10-methoxy-9-((3-methoxycyclobutyl)methoxy)-2-oxo-6,7-dihydro-2H-pyrido[2,1-α]isoquinoline-3-carboxylic acid] | 27.1 | 2150 | 15.7 | 0.89 | 1.05 | 3030 | 739 | 0.92 | 1.3 | 8.81 | good PK properties |
| COc1cc2c(cc1OC1CCCC1)C[C@@H](C(C)C)n1cc(C(=O)O)c(=O)cc1-2 [Compound I-10, (S)-9-(cyclopentyloxy)-6-isopropyl-10-methoxy-2-oxo-6,7-dihydro-2H-pyrido[2,1-α]isoquinoline-3-carboxylic acid] | 11.7 | 1490 | 22.7 | 0.88 | 1.41 | 869 | 265 | 1 | 1.3 | 8.52 | – |
| COCCCOc1cc2c(cc1OC)-c1cc(=O)c(C(=O)O)cn1[C@H](C(C)C)C2 [A, reference compound] | 21.5 | 1610 | 20.8 | 0.94 | 1.17 | 1760 | 475 | 2.2 | 1.5 | 8.39 | – |
| COc1cc2c(cc1O[C@@H]1CCOC1)C[C@@H](C(C)C)n1cc(C(=O)O)c(=O)cc1-2 [Compound I-2, (S)-6-isopropyl-10-methoxy-2-oxo-9-(((R)-tetrahydrofuran-3-yl)oxy)-6,7-dihydro-2H-pyrido[2,1-α]isoquinoline-3-carboxylic acid] | 18.9 | 1800 | 18.6 | 1.8 | 1.51 | 1690 | 437 | 1.2 | 1.6 | 8.74 | good PK properties |
| COc1cc2c(cc1O[C@H]1C[C@H](OC)C1)C[C@@H](C(C)C)n1cc(C(=O)O)c(=O)cc1-2 [Compound I-5, (S)-6-isopropyl-10-methoxy-9-((1R,3S)-3-methoxycyclobutoxy)-2-oxo-6,7-dihydro-2H-pyrido[2,1-α]isoquinoline-3-carboxylic acid] | 37.7 | 2940 | 11.3 | 0.98 | 0.858 | 5500 | 1340 | 0.5 | 1.7 | 8.79 | good PK properties |
| COCC1(COc2cc3c(cc2OC)-c2cc(=O)c(C(=O)O)cn2[C@H](C(C)C)C3)CC1 [Compound I-6, (S)-6-isopropyl-10-methoxy-9-((1-(methoxymethyl)cyclopropyl)methoxy)-2-oxo-6,7-dihydro-2H-pyrido[2,1-α]isoquinoline-3-carboxylic acid] | 45.8 | 1020 | 33.6 | 0.71 | 1.74 | 2310 | 1490 | 0.58 | 1.9 | 8.50 | good PK properties |
| COCC1(COc2cc3c(cc2OC)-c2cc(=O)c(C(=O)O)cn2C(C(C)(C)COC)C3)CC1 (racemic) [Compound I-54-rac, 10-methoxy-6-(1-methoxy-2-methylpropan-2-yl)-9-((1-(methoxymethyl)cyclopropyl)methoxy)-2-oxo-6,7-dihydro-2H-pyrido[2,1-α]isoquinoline-3-carboxylic acid] | – | – | – | – | – | – | – | – | – | 8.27 | – |
